Key:
pigweed = test: Test A pre-/postemergence herbicide test; format: in vivo, Amaranthus retroflexus
Outline: (§1)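 Formulated compound (non-phytotoxic solvent, surfactant) sprayed pre- onto soil of seeded loam/sand pots or post- onto seedlings at 1–2 leaves; ~10 d greenhouse; 0–100 visual control rating versus untreated.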

sedge, umbrella = test: Test B flooded paddy test; format: in vivo, Cyperus difformis; conditions: Flood, scale of 0 to 100 where 0 is no effect and 100 is complete control
Outline: (§2)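 Treatment was made at the 2-leaf stage by dosing the standing floodwater, kept 3 cm above soil level for the whole test. Greenhouse exposure lasted 13 to 15 days. Response is a visual percent rating relative to controls, where a dash indicates no test result.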

corn = test: Test A pre-/postemergence herbicide test; format: in vivo, Zea mays
Outline: as §1

barnyardgrass [1] = test: Test A pre-/postemergence herbicide test; format: in vivo, Echinochloa crus-galli
Outline: as §1

morningglory = test: Test A pre-/postemergence herbicide test; format: in vivo, Ipomoea spp.
Outline: as §1

ducksalad = test: Test B flooded paddy test; format: in vivo, Heteranthera limosa; conditions: Flood, scale of 0 to 100 where 0 is no effect and 100 is complete control
Outline: as §2

barnyardgrass [2] = test: Test B flooded paddy test; format: in vivo, Echinochloa crus-galli; conditions: Flood, scale of 0 to 100 where 0 is no effect and 100 is complete control
Outline: as §2

wheat = test: Test A pre-/postemergence herbicide test; format: in vivo, Triticum aestivum
Outline: as §1

velvetleaf = test: Test A pre-/postemergence herbicide test; format: in vivo, Abutilon theophrasti
Outline: as §1

crabgrass, large = test: Test A pre-/postemergence herbicide test; format: in vivo, Digitaria sanguinalis
Outline: as §1

giant foxtail = test: Test A pre-/postemergence herbicide test; format: in vivo, Setaria faberii
Outline: as §1

rice = test: Test B flooded paddy test; format: in vivo, Oryza sativa; conditions: Flood, scale of 0 to 100 where 0 is no effect and 100 is complete control
Outline: as §2

[3] = Postemergence, 125 g ai/ha, visual rating on 0 to 100 scale (0 no effect, 100 complete control), approx. 10 days
[4] = Postemergence, 500 g ai/ha, 0 to 100 scale (0 no effect, 100 complete control)
[5] = Preemergence, 125 g ai/ha, 0 to 100 scale where 0 is no effect and 100 is complete control
[6] = preemergence, 500 g ai/ha, 0 to 100 scale, 0 is no effect and 100 is complete control
[7] = Postemergence, 125 g ai/ha, 0 to 100 scale, 0 is no effect, 100 is complete control
[8] = Postemergence, 1000 g ai/ha, 0 to 100 scale (0 no effect, 100 complete control)
[9] = Preemergence, 1000 g ai/ha, visual rating on 0 to 100 scale (0 no effect, 100 complete control), approx. 10 days
[10] = Postemergence, 125 g ai/ha, 0 to 100 scale, 0 no effect, 100 complete control
[11] = Preemergence, 125 g ai/ha, visual rating on 0 to 100 scale (0 no effect, 100 complete control)
[12] = preemergence, 500 g ai/ha, 0 to 100 scale

`O=C1NCC(c2ccc(Cl)c(C(F)(F)F)c2)C1C(=O)Nc1ccccc1C(F)(F)F` (racemic) [Compound 269] was tested, and the “Plant response rating, Pigweed” value (pigweed; [3]) was 70, the “Plant response rating, Pigweed” value (pigweed; [4]) was 60 and the “Plant response rating, Pigweed” value (pigweed; [5]) was 50. The “Plant response rating, Pigweed” value (pigweed; [6]) was 70, the “Plant response rating, Sedge, Umbrella” value (sedge, umbrella; 1000 g ai/ha) was 0 and the “Plant response rating, Corn” value (corn; [7]) was 0. The “Plant response rating, Corn” value (corn; [4]) was 20, the “Plant response rating, Corn” value (corn; [5]) was 0 and the “Plant response rating, Corn” value (corn; [6]) was 0. The “Plant response rating, Barnyardgrass” value (barnyardgrass [1]; [7]) was 50, the “Plant response rating, Barnyardgrass” value (barnyardgrass [1]; [4]) was 70 and the “Plant response rating, Barnyardgrass” value (barnyardgrass [1]; [5]) was 70. For the same compound, the “Plant response rating, Barnyardgrass” value (barnyardgrass [1]; [6]) was 80, the “Plant response rating, Morningglory” value (morningglory; [3]) was 0 and the “Plant response rating, Morningglory” value (morningglory; [4]) was 0. The “Plant response rating, Morningglory” value (morningglory; [5]) was 0, the “Plant response rating, Morningglory” value (morningglory; [6]) was 0 and the “Plant response rating, Ducksalad” value (ducksalad; 1000 g ai/ha) was 100. For the same compound, the “Plant response rating, Barnyardgrass” value (barnyardgrass [2]; 1000 g ai/ha) was 0, the “Plant response rating, Wheat” value (wheat; [3]) was 0 and the “Plant response rating, Wheat” value (wheat; [4]) was 0. For the same compound, the “Plant response rating, Wheat” value (wheat; [5]) was 0, the “Plant response rating, Wheat” value (wheat; [6]) was 0 and the “Plant response rating, Velvetleaf” value (velvetleaf; [5]) was 0. For the same compound, the “Plant response rating, Velvetleaf” value (velvetleaf; [6]) was 0, the “Plant response rating, Crabgrass, Large” value (crabgrass, large; [7]) was 60 and the “Plant response rating, Crabgrass, Large” value (crabgrass, large; [4]) was 80. For the same compound, the “Plant response rating, Crabgrass, Large” value (crabgrass, large; [5]) was 80, the “Plant response rating, Crabgrass, Large” value (crabgrass, large; [6]) was 90 and the “Plant response rating, Foxtail, Giant” value (giant foxtail; [7]) was 70. The “Plant response rating, Foxtail, Giant” value (giant foxtail; [4]) was 80, the “Plant response rating, Foxtail, Giant” value (giant foxtail; [5]) was 80 and the “Plant response rating, Foxtail, Giant” value (giant foxtail; [6]) was 80. The “Plant response rating, Rice” value (rice; 1000 g ai/ha) was 0.
For `Cn1ccc(NC(=O)C2C(=O)NCC2c2ccc(F)c(F)c2)n1` (stereo not drawn) [Compound 31], the “Plant response rating, Pigweed” value (pigweed; [8]) was 0, the “Plant response rating, Pigweed” value (pigweed; [9]) was 0 and the “Plant response rating, Sedge, Umbrella” value (sedge, umbrella; 250 g ai/ha) was 0. For the same compound, the “Plant response rating, Corn” value (corn; [8]) was 30, the “Plant response rating, Corn” value (corn; [9]) was 20 and the “Plant response rating, Barnyardgrass” value (barnyardgrass [1]; [8]) was 60. The “Plant response rating, Barnyardgrass” value (barnyardgrass [1]; [9]) was 50, the “Plant response rating, Morningglory” value (morningglory; [8]) was 0 and the “Plant response rating, Ducksalad” value (ducksalad; 250 g ai/ha) was 0. For the same compound, the “Plant response rating, Barnyardgrass” value (barnyardgrass [2]; 250 g ai/ha) was 0, the “Plant response rating, Wheat” value (wheat; [8]) was 0 and the “Plant response rating, Wheat” value (wheat; [9]) was 50. The “Plant response rating, Velvetleaf” value (velvetleaf; [8]) was 0, the “Plant response rating, Velvetleaf” value (velvetleaf; [9]) was 0 and the “Plant response rating, Crabgrass, Large” value (crabgrass, large; [8]) was 20. The “Plant response rating, Crabgrass, Large” value (crabgrass, large; [9]) was 80, the “Plant response rating, Foxtail, Giant” value (giant foxtail; [8]) was 20 and the “Plant response rating, Foxtail, Giant” value (giant foxtail; [9]) was 80. The “Plant response rating, Rice” value (rice; 250 g ai/ha) was 0.
For `O=C1NCC(c2ccc(Cl)nc2)C1C(=O)Nc1ccccc1C(F)(F)F` (stereo not drawn) [Compound 42], the “Plant response rating, Pigweed” value (pigweed; [10]) was 0, the “Plant response rating, Pigweed” value (pigweed; [4]) was 0 and the “Pigweed plant response rating” value (pigweed; [11]) was 0. For the same compound, the “Plant response rating, Pigweed” value (pigweed; [12]) was 30, the “Plant response rating, Sedge, Umbrella” value (sedge, umbrella; 250 g ai/ha) was 0 and the “Plant response rating, Corn” value (corn; [10]) was 0. The “Plant response rating, Corn” value (corn; [4]) was 0, the “Corn plant response rating” value (corn; [11]) was 0 and the “Plant response rating, Corn” value (corn; [12]) was 0. The “Plant response rating, Barnyardgrass” value (barnyardgrass [1]; [10]) was 0, the “Plant response rating, Barnyardgrass” value (barnyardgrass [1]; [4]) was 40 and the “Barnyardgrass plant response rating” value (barnyardgrass [1]; [11]) was 0. For the same compound, the “Plant response rating, Barnyardgrass” value (barnyardgrass [1]; preemergence, 500 g ai/ha, 0 to 100 scale (0 no effect, 100 complete control)) was 60, the “Plant response rating, Morningglory” value (morningglory; [10]) was 0 and the “Plant response rating, Morningglory” value (morningglory; [4]) was 0. For the same compound, the “Plant response rating, Ducksalad” value (ducksalad; 250 g ai/ha) was 60, the “Plant response rating, Barnyardgrass” value (barnyardgrass [2]; 250 g ai/ha) was 0 and the “Plant response rating, Wheat” value (wheat; [10]) was 0. The “Plant response rating, Wheat” value (wheat; [4]) was 0, the “Wheat plant response rating” value (wheat; [11]) was 0 and the “Plant response rating, Wheat” value (wheat; [12]) was 0. For the same compound, the “Plant response rating, Velvetleaf” value (velvetleaf; [10]) was 30, the “Plant response rating, Velvetleaf” value (velvetleaf; [4]) was 50 and the “Velvetleaf plant response rating” value (velvetleaf; [11]) was 0. For the same compound, the “Plant response rating, Velvetleaf” value (velvetleaf; [12]) was 0, the “Plant response rating, Crabgrass, Large” value (crabgrass, large; [10]) was 0 and the “Plant response rating, Crabgrass, Large” value (crabgrass, large; [4]) was 70. For the same compound, the “Crabgrass, Large plant response rating” value (crabgrass, large; [11]) was 80, the “Plant response rating, Crabgrass, Large” value (crabgrass, large; [12]) was 90 and the “Plant response rating, Foxtail, Giant” value (giant foxtail; [10]) was 0. The “Plant response rating, Foxtail, Giant” value (giant foxtail; [4]) was 20, the “Foxtail, Giant plant response rating” value (giant foxtail; [11]) was 20 and the “Plant response rating, Foxtail, Giant” value (giant foxtail; [12]) was 80. The “Plant response rating, Rice” value (rice; 250 g ai/ha) was 0.

Source: patent publication US10294202B2, “Pyrrolidinones as herbicides” (FMC Corporation, priority 2013, dated 2019)
